Data reported in patent EP4755892A1, “KINESIN KIF18A INHIBITOR AND USE THEREOF” (Shanghai Apeiron Therapeutics Company Limited, priority 2023, dated 2025).
Where two headings read alike, the source gives them in different places.

Experiments:
HT29 cells = assay: CyQuant Cell Proliferation Activity Test, HT29; type: cell-based; details: HT29 cells 2000 per well, initial concentration 3000 nM, 3-fold dilution, 3 days, 0.2% DMSO, read-out: HT29_IC50 _nM
Procedure: Assay 3: CyQuant Cell Proliferation Activity Test
Materials and Cells: HT29 cells were purchased from Nanjing Cobioer Biosciences Co., Ltd.; RPMI-1640 medium, fetal bovine serum, Trypsin-EDTA (0.25%), 96-well plates, and CyQuant reagents were purchased from ThermoFisher (USA); DMSO was purchased from SIGMA (USA).
Cell Culture: HT29 cells were cultured with RPMI-1640 containing 10% fetal bovine serum under the condition of 37°C and 5% CO2. Only cells in the logarithmic growth phase could be used for the test.
Cell Proliferation Activity Test: CyQuant reagent was used to detect the proliferation inhibitory activity of compounds on HT29 cells. The cell density was adjusted, and 100 µL per well was inoculated into a 96-well plate (HT29 at 2000 cells per well), then incubated overnight at 37°C and 5% CO2. Add compounds of various target concentrations (initial concentration of 3000 nM, 3-fold dilution, 9 concentration gradients), and make the DMSO content 0.2%. The cell plate was incubated at 37°C in 5% CO2 for 3 days. CyQuant reagent was added and incubated for 1 h. The plates were read by Envision, and IC50 was calculated using XLFIT.

OVCAR3 cells = assay: Cell Proliferation Activity Test (CyQUANT Direct), OVCAR3; type: cell-based; details: compound 0-10 µM, 3 days, 0.2% DMSO, CyQUANT fluorescence, read-out: OVCAR-3 _IC50_nM
Procedure: Assay 2: Cell Proliferation Activity Test
Materials and Cells: OVCAR3 cells were purchased from Nanjing Cobioer Biosciences Co., Ltd. RPMI-1640 medium, fetal bovine serum, and the CyQUANT Direct Cell Proliferation Assay kit were purchased from Thermo Fisher Scientific, USA; 96-well cell culture plates were sourced from Coming, USA.
Cell Culture: OVCAR3 cells were cultured with RPMI-1640 medium containing 10% fetal bovine serum and incubated in a 5% CO2 incubator at 37°C. Only cells in the logarithmic growth phase could be used for the test.
Cell Proliferation Activity Test:
OVCAR3 cells were inoculated into a 96-well cell culture plate at 90 µL per well and incubated overnight in a 5% CO2 incubator at 37°C. The compound powder was dissolved in DMSO to prepare a stock solution of 10 mM. Then gradient dilution was performed for the compounds in the microplate to achieve a final concentration of 0-10 µM. 10 µL of cell culture medium containing compounds was added to each well to make the final DMSO content 0.2%. The cell plates were incubated in a 5% CO2 incubator at 37°C for 3 days. 100 µL of CyQUANT detection reagent was added to each well, reacted at 37°C for 60 min, and fluorescence detection was performed using the PerkinElmer Envision.

[1] = molecular target: T1, Human KIF18A (amino acid sequence 1-417) (Homo sapiens, UniProt Q8NI77); assay: Enzymatic Activity Test (ADP-Glo, microtubule-stimulated KIF18A ATPase); type: biochemical; details: 60 µg/mL microtubules, 25 µM ATP, 2.5 nM KIF18A protein, 120 min at ambient temperature, chemiluminescence; read-out: KIF 18A IC50
T1 construct: purchased Viva Biotech (Shanghai) Ltd
T1 sequence (Q8NI77 1-417): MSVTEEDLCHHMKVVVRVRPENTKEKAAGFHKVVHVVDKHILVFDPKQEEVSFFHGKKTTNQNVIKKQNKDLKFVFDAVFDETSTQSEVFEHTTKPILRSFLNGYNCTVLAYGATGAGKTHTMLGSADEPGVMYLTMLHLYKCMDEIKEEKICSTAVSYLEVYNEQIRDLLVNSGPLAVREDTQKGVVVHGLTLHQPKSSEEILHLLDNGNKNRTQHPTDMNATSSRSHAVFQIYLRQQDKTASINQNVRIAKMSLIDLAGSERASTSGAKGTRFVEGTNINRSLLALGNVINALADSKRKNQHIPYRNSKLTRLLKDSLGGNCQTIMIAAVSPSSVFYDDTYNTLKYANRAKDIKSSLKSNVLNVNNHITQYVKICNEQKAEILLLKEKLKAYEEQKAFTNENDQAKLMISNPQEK
Procedure: Assay 1: Enzymatic Activity Test
Materials: Human KIF18A (amino acid sequence 1-417) was purchased from Viva Biotech (Shanghai) Ltd.; the ADP-Glo™ protein kinase kit was acquired from Promega, USA; tubulin was sourced from Cytoskeleton, USA; and the 384-well assay plate and Envision multifunctional microplate reader were obtained from PerkinElmer, USA.
Enzymatic Activity Test: The compound powder was dissolved in DMSO to prepare a stock solution of 10 mM. Then gradient dilution was performed for the compounds in the microplate to achieve a final concentration of 0-10 µM. Then, 2.5 µL each of tubulin, compound, ATP, and KIF18A protein were added to the microplate in sequence for reaction at ambient temperature for 120 min. The final concentrations in the enzyme reaction were 60 µg/mL for microtubules, 25 µM for ATP, and 2.5 nM for KIF18A protein. After the enzyme reaction, 10 µL of ADP-GLO reaction reagent was added to each well and incubated at room temperature for 30 min. After that, 20 µL of detection reagent was added to each well and incubated at room temperature for 30 min in the dark. Finally, chemiluminescence detection was performed using the PerkinElmer Envision.

Structure (SMILES) | IC50 (HT29 cells) [nM] | IC50 (OVCAR3 cells) [nM] | IC50 [1] [nM] | IC50 (HT29 cells; Homo sapiens, HT-29, 72 h) [nM] | IC50 (OVCAR3 cells; Homo sapiens, OVCAR-3, 72 h) [nM]
Cc1cc2nc(n1)N1CCC(F)(F)C(CC=CC3CCN(CC3)c3cc(NS(=O)(=O)CCO)ccc3C(=O)N2)C1 (stereo not drawn) [Example 19, (E)-N-(1^4,1^4-difluoro-2^6-methyl-4-oxo-3-aza-2(2,4)-pyrimidin-1(1,3),6(1,4)-dipiperidin-5(1,2)-benzeneheterocyclonon-7-en-5^4-yl)-2-hydroxyethane-1-sulfonamide] |  |  | 184 | 644 | 703
Cc1cc2nc(n1)N1CCC(F)(F)C(CCC=C3CCN(CC3)c3cc(NS(=O)(=O)CCO)ccc3C(=O)N2)C1 (stereo not drawn) [Example 20, N-(1^4,1^4-difluoro-2^6-methyl-4-oxo-3-aza-2(2,4)-pyrimidin-1(1,3),6(1,4)-dipiperidin-5(1,2)-benzeneheterocyclononane-5^4-yl)-2-hydroxyethane-1-sulfonamide] |  |  | 2920 | > 3000 | > 3000
Cc1cc2nc(n1)N1CCC(F)(F)C(=CCCC3CCN(CC3)c3cc(NS(=O)(=O)CCO)ccc3C(=O)N2)C1 [Example 21, N-(1^4,1^4-difluoro-2^6-methyl-4-oxo-3-aza-2(2,4)-pyrimidin-1(1,3),6(1,4)-dipiperidin-5(1,2)-benzeneheterocyclonon-9-en-5^4-yl)-2-hydroxyethane-1-sulfonamide] |  |  | 305 | 703 | 744
Cc1cc2nc(n1)N1CCC(F)(F)C(CCCC3CCN(CC3)c3cc(NS(=O)(=O)CCO)ccc3C(=O)N2)C1 (stereo not drawn) [Example 23, N-(1^4,1^4-difluoro-2^6-methyl-4-oxo-3-aza-2(2,4)-pyrimidin-1(1,3),6(1,4)-dipiperidin-5(1,2)-benzeneheterocyclononane-5^4-yl)-2-hydroxyethane-1-sulfonamide] | 47 | 52 | 102 |  | 
COc1cc2nc(n1)N1CCC(F)(F)C(C=CCC3CCN(CC3)c3cc(NS(=O)(=O)CCO)ccc3C(=O)N2)C1 (stereo not drawn) [Example 24, (Z)-N-(1^4,1^4-difluoro-2^6-methoxy-4-oxo-3-aza-2(2,4)-pyrimidin-1(1,3),6(1,4)-dipiperidin-5(1,2)-benzeneheterocyclonon-8-en-5^4-yl)-2-hydroxyethane-1-sulfonamide] |  |  | 158 | 63 | 46
Cc1cc2nc(n1)N1CCOC(C=CCC3CCN(CC3)c3cc(NS(=O)(=O)CCO)ccc3C(=O)N2)C1 (stereo not drawn) [Example 25, 2-Hydroxy-N-((1^2S)-2^6-methyl-4-oxo-3-aza-1(4,2)-morpholin-2(2,4)-pyrimidin-6(1,4)-piperidin-5(1,2)-benzeneheterocyclonon-8-en-5^4-yl)ethane-1-sulfonamide] |  |  | 13 | 10.9 | 8.5
Cc1cc2nc(n1)N1CCCC(C1)C(=O)NCC1CCN(CC1)c1cc(NS(=O)(=O)CCO)ccc1C(=O)N2 (stereo not drawn) [Example 27, N-(2^6-methyl-4,9-dioxo-3,8-diaza-2(2,4)-pyrimidin-1(1,3),6(1,4)-dipiperidin-5(1,2) -benzeneheterocyclononane-5^4-yl)-2-hydroxyethane-1-sulfonamide] |  |  | 265 | > 3000 | 1480
Cc1cc2nc(n1)N1CCCC(COCC3CCN(CC3)c3cc(NS(=O)(=O)CCO)ccc3C(=O)N2)C1 (stereo not drawn) [Example 28, 2-Hydroxy-N-(2^6-methyl-4-oxo-8-oxa-3-aza-2(2,4)-pyrimidin-1(1,3),6(1,4)-dipiperidin-5(1,2)-benzeneheterocyclononane-5^4-yl)ethane-1-sulfonamide] |  |  | 229 | 639 | 506

Continued, values first:

IC50 (HT29 cells) [nM] | IC50 (OVCAR3 cells) [nM] | IC50 [1] [nM] | IC50 (HT29 cells; Homo sapiens, HT-29, 72 h) [nM] | IC50 (OVCAR3 cells; Homo sapiens, OVCAR-3, 72 h) [nM] | Structure (SMILES)
660 | 458 | 345 |  |  | Cc1cc2nc(n1)N1CCC(F)(F)C(C=CCC3CCN(CC3)c3cc(NS(=O)(=O)CCO)ccc3C(=O)N2)C1 (stereo not drawn) [Example 18D, N-((1^3R,Z)-1^4,1^4-difluoro-2^6-methyl-4-oxo-3-aza-2(2,4)-pyrimidin-1(1,3),6(1,4)-dipiperidin-5(1,2)-benzeneheterocyclononane-8-en-5^4-yl)-2-hydroxyethane-1-sulfon amide]
688 | 662 | 522 |  |  | Cc1cc2nc(n1)N1CCC(F)(F)C(CCCC3CCN(CC3)c3cc(NS(=O)(=O)CCO)ccc3C(=O)N2)C1 (stereo not drawn) [Example 23A, N-((1^3S)-1^4,1^4-difluoro-2^6-methyl-4-oxo-3-aza-2(2,4)-pyrimidin-1(1,3),6(1,4)-dipiperidin-5(1,2)-benzeneheterocyclononane-5^4-yl)-2-hydroxyethane-1-sulfonamide]
32 | 28 | 71.5 |  |  | Cc1cc2nc(n1)N1CCC(F)(F)C(CCCC3CCN(CC3)c3cc(NS(=O)(=O)CCO)ccc3C(=O)N2)C1 (stereo not drawn) [Example 23B, N-((1^3R)-1^4,1^4-difluoro-2^6-methyl-4-oxo-3-aza-2(2,4)-pyrimidin-1(1,3),6(1,4)-dipiperidin-5(1,2)-benzeneheterocyclononane-5^4-yl)-2-hydroxyethane-1-sulfonamide]
